Data: patent US20230141863A1, “Small Molecule Inhibitors Targeting the Sodium Channel Tamoxifen Receptor and Uses Thereof” (Northwestern University, priority 2021, published 2023)

Columns and labels:
[1] = tested on: T1, endogenous voltage-gated sodium channels expressed in murine DRG neurons; experiment: Whole cell voltage clamp of endogenous sodium currents (INa) in cultured DRG sensory neurons; format: cell-based, mouse; conditions: for voltage dependence of INa inhibition (in words): −60 mV versus −100 mV holding potential
T1 construct: other: waiting for 5 minutes after removal; ND-Tam potency against DRG INa (IC50); other: DRG neurons, −60 mV holding potential; other: 3 μM ND-Tam treatment; other: DR
Procedure: FIG. 1. Tamoxifen metabolites inhibit endogenous voltage-gated sodium channels expressed in murine DRG neurons. A) DIC and fluorescence images of voltage clamped DRG neuron isolated and cultured from an Nav1.8-tomato mouse. Continuity with the patched neuron is indicted by the GFP (Alexa Fluor 488 dye 1 nM) loaded into the glass patch electrode. B) Top, exemplar sodium currents (INa) recorded in control saline and two concentrations of N-desmethyl tamoxifen (ND-Tam) from a voltage-clamped DRG neuron. INa was activated by 0.2 Hz train of 50 ms depolarizations to −10 mV from −100 mV holding potential. Bottom, time course of peak INa inhibition during control conditions and after 5 minutes of extracellular ND-Tam treatment. C) Resulting drug concentration-INa inhibition relationship for ND-Tam fit to the Hill equation. Open symbols represent responses from individual cells and filled symbols represent average response per concentration. Error is equal to S.E.M. (n=11) D) A comparison of the percent INa recovery after 3-10 μM ND-Tam or 1 mM carbamazepine (CBZ) inhibition. INa recovery was assessed after 5 minutes in control saline post drug exposure. Fewer INa recovered from ND-Tam exposure compared to CBZ exposure, 14.3±5.4% and 47.2±9.6%, respectively, and was statistically significant (P=0.03). Error is equal to S.E.M. and the number of cells tested per treatment group is indicated within the parentheses.
Previously, a unique receptor site for tamoxifen analogues within the prokaryotic sodium channel isolated form Magnetococcus marinus (NavMs)^36 (Sula et al) was crystallographically identified. Because drug occupancy of this receptor caused long lasting inhibition of the NavMs INa, the inventors wondered if these properties would translate into effects against sensory neuron Na s which transmit pain signals. Accordingly, =the potency of ND-Tam and 4OH-Tam was tested against endogenously expressed Na s in cultured DRG sensory neurons isolated from Nav1.8-tdTomato mice by conducting whole cell voltage clamp recordings (FIG. 1A, B). Sodium currents were activated by a 0.2 Hz train of −10 mV depolarizations from a holding potential of −100 mV. The externally applied drug effect was determined after three to five minutes of application of each drug concentration (FIG. 1B). […] As discussed in the introduction, total DRG INa is conducted by the Nav1.1, Nav1.6, Nav1.7, Nav1.8 and Nav1.9 subtypes. To determine if there is any specificity in the potency of tamoxifen analogues against Nav subtypes, human orthologues were heterologously expressed in cell lines (HEK and CHO co-expressing hb1 subunits), and conducted voltage-clamp experiments, as previously performed in the DRG neurons.
Dorsal root ganglia were isolated using a modified version of the previously described protocol (PMID: 26864470). All animal procedures were approved by the Institutional Animal Care and Use Committee at the Feinberg Medical School, Northwestern University. The spinal columns of 4-6-week-old […] or Nav1.8-Tomato mice (Nav1.8-Td) were removed and DRG neurons from all spinal levels were isolated for primary culture (PMID: 33827672, PMID: 31351964). The collected DRGs, containing both neuronal and non-neuronal cells, were acutely dissociated in DMEM with collagenase IV (2 mg/mL) for 30 minutes, followed by papain (25 U/mL) for 30 minutes. The cells were then triturated, filtered through a 40 μm cell strainer to remove non-dissociated cells, and washed with DMEM. The DRGs were resuspended in 70 μL of pre-warmed growth medium (DMEM F12+Glutamax supplemented with 0.5% FBS, 0.5% penicillin/streptomycin, 1% N-2 supplement, and β-NGF ([…]) added on the day of use) and plated on poly-l-lysine (10 mg/mL) and laminin (25 μg/mL) prepared coverslips. The DRGs were incubated at 37° C. for 2-4 hours before more growth medium was added to the wells. […]

[2] = target: T2, human Nav1.7 (Homo sapiens, UniProt Q15858); experiment: Voltage clamp of heterologously expressed Nav1.7; format: cell-based; conditions: Hill fit, printed for ND-Tam and 4OH-Tam together
T2 construct: expressed in transfected cells; host or cells: HEK cells, transient transfection with lipofectamine
Procedure: While no clear drug-receptor interactions were determined within Siteout, the S6 E220 side chains formed hydrogen bond interactions with the ether and amine moieties of the ND-Tam molecules found at Sitein. […] After structural alignment of the crystalized NavMs-Tam complex with the cryo EM Nav1.7+b1+b2 channel coordinates, the S6 side chain hydroxyl in DII (S969) and the carboxyl side chains in DIII (E1458) and DIV (D1761) observed in the human channel were nearly superimposable with E220 of the prokaryotic Nav subunits. In addition, the distances from the drug ether and amines were within acceptable distances (2.8-3.1 Å) for hydrogen bond formation for all three site chains (FIG. 2B). […]
Plasmids encoding the human version of channels Nav1.1, 1.6, and 1.7 were co-transfected with TRES GFP into HEK cell lines for whole-cell voltage clamp studies (American Type Culture Collection). […] Plasma membrane currents were recorded using borosilicate glass electrodes polished to resistances of […]. Sodium currents conducted by heterologously expressed Navs were recorded using the following solutions (in mM). […] Endogenous DRG sodium currents were recorded using an intracellular solution consisting of 70 CsCl, 70 CsF, 2 EGTA, 5 HEPES, and 5 NaCl; the pH was adjusted to 7.4 with CsOH. […]

[3] = tested on: mice with knee hyperalgesia post DMM surgery; experiment: In vivo osteoarthritis pain model (DMM), knee hyperalgesia after intra-articular injection; set-up: species or system mouse; conditions: 50 μM intra-articular, vehicle 0.1% DMSO; for knee hyperalgesia versus vehicle, direct comparison study (in words): 30 minutes after injection; for knee withdrawal threshold versus vehicle control (in words): through 3 hours after injection
[4] = tested on: mice with knee hyperalgesia post DMM surgery; conditions: 20 mg/kg, ~0.85M, PMID: 29563338; cited from earlier work

T2 sequence (Q15858 whole entry): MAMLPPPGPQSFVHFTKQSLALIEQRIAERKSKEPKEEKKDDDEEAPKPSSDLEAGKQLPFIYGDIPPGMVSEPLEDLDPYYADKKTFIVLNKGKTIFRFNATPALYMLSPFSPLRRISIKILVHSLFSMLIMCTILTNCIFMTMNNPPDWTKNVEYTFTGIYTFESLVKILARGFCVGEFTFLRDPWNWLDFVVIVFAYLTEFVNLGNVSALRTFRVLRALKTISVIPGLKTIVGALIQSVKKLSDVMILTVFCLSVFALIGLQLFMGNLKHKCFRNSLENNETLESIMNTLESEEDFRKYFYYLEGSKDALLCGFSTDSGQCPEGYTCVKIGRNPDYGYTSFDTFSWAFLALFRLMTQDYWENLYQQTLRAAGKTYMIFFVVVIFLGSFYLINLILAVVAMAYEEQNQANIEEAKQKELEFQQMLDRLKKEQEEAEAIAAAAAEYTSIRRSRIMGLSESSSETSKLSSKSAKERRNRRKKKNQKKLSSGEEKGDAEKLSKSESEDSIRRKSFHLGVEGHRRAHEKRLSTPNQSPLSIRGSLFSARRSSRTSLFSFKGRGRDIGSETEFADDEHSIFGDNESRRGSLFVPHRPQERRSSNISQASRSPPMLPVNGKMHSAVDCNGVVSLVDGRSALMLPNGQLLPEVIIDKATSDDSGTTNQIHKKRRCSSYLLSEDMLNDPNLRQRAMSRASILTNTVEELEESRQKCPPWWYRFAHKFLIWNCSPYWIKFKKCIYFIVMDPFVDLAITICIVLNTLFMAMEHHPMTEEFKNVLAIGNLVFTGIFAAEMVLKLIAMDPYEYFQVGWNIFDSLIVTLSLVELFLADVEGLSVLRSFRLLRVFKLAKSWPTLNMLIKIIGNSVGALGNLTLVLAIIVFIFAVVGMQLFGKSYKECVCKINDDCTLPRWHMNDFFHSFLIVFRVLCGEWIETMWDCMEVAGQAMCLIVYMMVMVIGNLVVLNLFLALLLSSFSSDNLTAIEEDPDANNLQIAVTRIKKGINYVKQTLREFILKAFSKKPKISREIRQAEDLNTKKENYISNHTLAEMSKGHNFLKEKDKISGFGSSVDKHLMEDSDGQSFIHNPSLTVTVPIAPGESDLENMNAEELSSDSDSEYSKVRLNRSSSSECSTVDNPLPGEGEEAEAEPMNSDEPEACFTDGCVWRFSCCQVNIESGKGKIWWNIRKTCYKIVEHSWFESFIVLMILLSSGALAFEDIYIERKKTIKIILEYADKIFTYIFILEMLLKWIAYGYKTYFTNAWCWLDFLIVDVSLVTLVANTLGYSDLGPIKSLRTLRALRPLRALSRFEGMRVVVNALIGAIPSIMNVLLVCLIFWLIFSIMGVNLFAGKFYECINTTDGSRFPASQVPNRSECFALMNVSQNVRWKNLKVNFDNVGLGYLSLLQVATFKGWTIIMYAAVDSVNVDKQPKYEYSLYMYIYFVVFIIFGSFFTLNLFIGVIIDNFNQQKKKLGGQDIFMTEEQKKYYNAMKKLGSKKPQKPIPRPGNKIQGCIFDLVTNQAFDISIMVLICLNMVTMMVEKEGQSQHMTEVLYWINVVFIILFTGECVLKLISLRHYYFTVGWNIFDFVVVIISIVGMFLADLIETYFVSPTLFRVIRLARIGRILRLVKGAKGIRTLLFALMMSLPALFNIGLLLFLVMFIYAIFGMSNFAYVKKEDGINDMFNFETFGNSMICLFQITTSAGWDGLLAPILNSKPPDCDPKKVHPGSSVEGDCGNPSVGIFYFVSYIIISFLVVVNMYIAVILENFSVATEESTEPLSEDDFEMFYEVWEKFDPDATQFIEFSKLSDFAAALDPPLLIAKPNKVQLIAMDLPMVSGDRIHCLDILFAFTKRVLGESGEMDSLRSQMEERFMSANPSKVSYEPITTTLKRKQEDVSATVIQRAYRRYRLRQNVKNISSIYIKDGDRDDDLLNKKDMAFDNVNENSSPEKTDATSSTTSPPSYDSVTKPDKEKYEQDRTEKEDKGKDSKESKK

CC/C(=C(\c1ccc(O)cc1)c1ccc(OCCN(C)C)cc1)c1ccccc1 [4OH-Tam, 4-[(Z)-1-[4-[2-(dimethylamino)ethoxy]phenyl]-2-phenylbut-1-enyl]phenol]
IC50 ([1]; DRG neurons, −100 mV holding potential, 0.2 Hz train of −10 mV depolarizations, read-out: half maximal potency of INa inhibition (IC50)): 3.3 µM
inhibition of sodium currents recorded from DRG neurons (in words) ([1]; tamoxifen analogs and fragments, FIG. 7B): inhibited sodium currents
slope of concentration-dependence [2]: 2.1

C=C(C)[C@@H]1CCC(C)=C[C@H]1c1c(O)cc(CCCCC)cc1O [CBD, cannabidiol, reference compound]
voltage dependence of INa inhibition (in words) [1]: followed this trend
knee hyperalgesia versus vehicle, direct comparison study (in words) [3]: effectively inhibited knee hyperalgesia
knee withdrawal threshold versus vehicle control (in words) [3]: remained elevated compared to vehicle control through 3 hours after injection

NC(=O)N1c2ccccc2C=Cc2ccccc21 [CBZ, carbamazepine, reference compound]
voltage dependence of INa inhibition (in words) [1]: most potent when membranes were held at −60 mV

CCN(CC)CC(=O)Nc1c(C)cccc1C [lidocaine, reference compound]
voltage dependence of INa inhibition (in words) [1]: most potent when membranes were held at −60 mV
knee hyperalgesia versus vehicle, direct comparison study (in words) [3]: effectively inhibited knee hyperalgesia
knee withdrawal threshold versus vehicle control (in words) [3]: remained elevated compared to vehicle control through 3 hours after injection
knee hyperalgesia after local injection of a relatively high dose (in words) [4]: able to acutely reverse knee hyperalgesia
